Laboratory results published in the NIST ThermoML archive (doi:10.1016/j.tca.2013.08.031).
Numbers after ± are expanded uncertainties.

Assay: molar heat capacity at constant volume
Details: Fluid (supercritical or subcritical phases), Vacuum adiabatic calorimetry

CCC(C)O (stereo unspecified) [butan-2-ol]
Details | molar heat capacity at constant volume [J/K/mol]
533.36 K, Mass density=301.19 kg/m3 | 394.33 ± 3.7
533.36 K, Mass density=347.06 kg/m3 | 375.06 ± 3.7
533.36 K, Mass density=474.07 kg/m3 | 196.42 ± 2.2
533.54 K, Mass density=184.89 kg/m3 | 510.48 ± 5.7
533.54 K, Mass density=198.25 kg/m3 | 497.8 ± 5
533.54 K, Mass density=245.67 kg/m3 | 452.07 ± 4.5
533.54 K, Mass density=284.93 kg/m3 | 412.49 ± 4.2
533.54 K, Mass density=286.65 kg/m3 | 422.42 ± 4.2
533.54 K, Mass density=301.19 kg/m3 | 399.52 ± 3.7
533.54 K, Mass density=347.06 kg/m3 | 375.06 ± 3.7
533.54 K, Mass density=474.07 kg/m3 | 196.42 ± 2.2
533.68 K, Mass density=286.65 kg/m3 | 420.64 ± 4.2
533.72 K, Mass density=184.89 kg/m3 | 467.11 ± 5.4
533.72 K, Mass density=198.25 kg/m3 | 506.55 ± 5.1
533.72 K, Mass density=245.67 kg/m3 | 456.07 ± 4.6
533.72 K, Mass density=284.93 kg/m3 | 412.86 ± 4.2
533.72 K, Mass density=301.19 kg/m3 | 403.96 ± 4.4
533.72 K, Mass density=347.06 kg/m3 | 377.28 ± 3.7
533.74 K, Mass density=184.89 kg/m3 | 332.58 ± 4.3
533.76 K, Mass density=184.89 kg/m3 | 294.56 ± 4
533.78 K, Mass density=184.89 kg/m3 | 303.68 ± 4.1
533.8 K, Mass density=184.89 kg/m3 | 307.31 ± 4.1
533.81 K, Mass density=184.89 kg/m3 | 283.59 ± 3.9
533.91 K, Mass density=198.25 kg/m3 | 508.47 ± 5.3
533.91 K, Mass density=245.67 kg/m3 | 462 ± 4.7
533.91 K, Mass density=284.93 kg/m3 | 414.71 ± 4.2
533.91 K, Mass density=286.65 kg/m3 | 429.46 ± 4.3
533.91 K, Mass density=301.19 kg/m3 | 408.41 ± 4.4
533.91 K, Mass density=347.06 kg/m3 | 375.06 ± 3.7
534.09 K, Mass density=198.25 kg/m3 | 520.78 ± 5.5
534.09 K, Mass density=245.67 kg/m3 | 460.22 ± 4.7
534.09 K, Mass density=279.19 kg/m3 | 425.38 ± 4.3
534.09 K, Mass density=284.93 kg/m3 | 420.86 ± 4.2
534.09 K, Mass density=301.19 kg/m3 | 412.12 ± 4.4
534.09 K, Mass density=347.06 kg/m3 | 382.47 ± 4.4
534.27 K, Mass density=198.25 kg/m3 | 538.57 ± 6.2
534.27 K, Mass density=245.67 kg/m3 | 465.85 ± 4.7
534.27 K, Mass density=279.19 kg/m3 | 430.42 ± 4.4
534.27 K, Mass density=284.93 kg/m3 | 420.42 ± 4.2
534.27 K, Mass density=286.65 kg/m3 | 436.5 ± 4.4
534.27 K, Mass density=347.06 kg/m3 | 387.66 ± 4.4
534.46 K, Mass density=198.25 kg/m3 | 527.82 ± 6
534.46 K, Mass density=245.67 kg/m3 | 472.82 ± 4.8
534.46 K, Mass density=279.19 kg/m3 | 435.09 ± 4.4
534.46 K, Mass density=284.93 kg/m3 | 425.75 ± 4.3
534.46 K, Mass density=286.65 kg/m3 | 439.47 ± 4.4
534.46 K, Mass density=301.19 kg/m3 | 418.79 ± 4.4
534.46 K, Mass density=347.06 kg/m3 | 400.26 ± 4.4
534.64 K, Mass density=184.89 kg/m3 | 279.36 ± 2.8
534.64 K, Mass density=198.25 kg/m3 | 354.23 ± 4.5
534.64 K, Mass density=245.67 kg/m3 | 484.53 ± 4.9
534.64 K, Mass density=276.45 kg/m3 | 433.39 ± 4.4
534.64 K, Mass density=279.19 kg/m3 | 437.91 ± 4.4
534.64 K, Mass density=284.93 kg/m3 | 426.57 ± 4.3
534.64 K, Mass density=301.19 kg/m3 | 421.75 ± 4.4
534.64 K, Mass density=347.06 kg/m3 | 353.56 ± 3.7
534.64 K, Mass density=403.55 kg/m3 | 223.85 ± 2.2
534.82 K, Mass density=198.25 kg/m3 | 329.47 ± 4.2
534.82 K, Mass density=245.67 kg/m3 | 491.43 ± 5
534.82 K, Mass density=276.45 kg/m3 | 435.91 ± 4.5
534.82 K, Mass density=279.19 kg/m3 | 441.54 ± 4.5
534.82 K, Mass density=284.93 kg/m3 | 430.13 ± 4.4
534.82 K, Mass density=301.19 kg/m3 | 429.16 ± 4.4
534.82 K, Mass density=347.06 kg/m3 | 246.08 ± 3
534.82 K, Mass density=403.55 kg/m3 | 223.11 ± 2.2
535.01 K, Mass density=198.25 kg/m3 | 313.31 ± 4.7
535.01 K, Mass density=245.67 kg/m3 | 498.39 ± 5.2
535.01 K, Mass density=276.45 kg/m3 | 443.47 ± 4.8
535.01 K, Mass density=284.93 kg/m3 | 435.02 ± 4.4
535.01 K, Mass density=301.19 kg/m3 | 431.39 ± 4.4
535.01 K, Mass density=347.06 kg/m3 | 242.38 ± 3
535.01 K, Mass density=403.55 kg/m3 | 225.33 ± 2.2
535.19 K, Mass density=198.25 kg/m3 | 319.91 ± 4.7
535.19 K, Mass density=245.67 kg/m3 | 508.62 ± 5.1
535.19 K, Mass density=276.45 kg/m3 | 453.85 ± 5.3
535.19 K, Mass density=279.19 kg/m3 | 457.11 ± 4.7
535.19 K, Mass density=284.93 kg/m3 | 440.21 ± 4.6
535.19 K, Mass density=301.19 kg/m3 | 440.28 ± 4.4
535.19 K, Mass density=347.06 kg/m3 | 243.12 ± 3
535.19 K, Mass density=403.55 kg/m3 | 223.11 ± 2.2
535.37 K, Mass density=184.89 kg/m3 | 286.33 ± 2.9
535.37 K, Mass density=198.25 kg/m3 | 301.3 ± 3.2
535.37 K, Mass density=245.67 kg/m3 | 516.03 ± 5.6
535.37 K, Mass density=276.45 kg/m3 | 460.59 ± 4.8
535.37 K, Mass density=279.19 kg/m3 | 465.85 ± 4.7
535.37 K, Mass density=284.93 kg/m3 | 441.02 ± 4.8
535.37 K, Mass density=286.65 kg/m3 | 467.56 ± 4.9
535.37 K, Mass density=301.19 kg/m3 | 445.47 ± 5.2
535.37 K, Mass density=403.55 kg/m3 | 219.4 ± 2.2
535.55 K, Mass density=184.89 kg/m3 | 286.55 ± 2.9
535.55 K, Mass density=245.67 kg/m3 | 535.08 ± 5.8
535.55 K, Mass density=276.45 kg/m3 | 474.75 ± 5
535.55 K, Mass density=279.19 kg/m3 | 472.08 ± 5.1
535.55 K, Mass density=284.93 kg/m3 | 454.96 ± 5
535.55 K, Mass density=286.65 kg/m3 | 474.38 ± 4.9
535.55 K, Mass density=301.19 kg/m3 | 458.07 ± 5.2
535.55 K, Mass density=347.06 kg/m3 | 243.12 ± 2.2
535.55 K, Mass density=403.55 kg/m3 | 220.88 ± 2.2
535.74 K, Mass density=198.25 kg/m3 | 286.33 ± 3
535.74 K, Mass density=245.67 kg/m3 | 563.92 ± 6.2
535.74 K, Mass density=276.45 kg/m3 | 489.72 ± 5.3
535.74 K, Mass density=279.19 kg/m3 | 488.09 ± 5.1
535.74 K, Mass density=284.93 kg/m3 | 470.52 ± 5.2
535.74 K, Mass density=286.65 kg/m3 | 487.57 ± 6.7
535.74 K, Mass density=301.19 kg/m3 | 477.34 ± 5.2
535.74 K, Mass density=347.06 kg/m3 | 249.05 ± 2.2
